Columns and labels:
Format in all cases: in vivo
Alopecurus myosuroides [1] = experiment: Test Example 5: herbicidal effect by foliage application, plastic box (symbol J); conditions: 320 g/ha, 3 weeks after application
Outline: (§1)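 Herbicide, formulated as an emulsion and diluted in water, is sprayed onto the aerial parts of 14-day seedlings. These were grown at 25° C. to 30° C. in sterilized diluvial soil; effects are graded after 3 weeks.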

rapeseed = experiment: Test Example 4: effect on crop by soil treatment (symbol g); conditions: application herbicide amount 320 g/ha
Outline: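 Soil-treatment setup: crop and weed seeds were spot-sown into sterilized diluvial soil, then buried beneath approximately 1.5 cm of it, and the boxes were housed in a 25–30° C. greenhouse.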

Stellaria media = experiment: Test Example 5: herbicidal effect by foliage application, plastic box (symbol P); conditions: 320 g/ha, 3 weeks after application
Outline: as §1

[2] = system: directly sowed rice plant; experiment: Test Example 3: effect on crop by foliage application, Wagner pot (symbol b); conditions: application herbicide amount 320 g/ha
Outline: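 Greenhouse culture at 25–30 °C of seeded rice, Cyperus difformis, Leptochloa chinensis and Echinochloa crus-galli var. crus-galli, in alluvial soil held under 0.1–0.5 cm of water in a Wagner pot.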

Cyperus difformis = experiment: Test Example 3: herbicidal effect by foliage application, Wagner pot (symbol E); conditions: application herbicide amount 320 g/ha
Outline: (§2)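 Plants sown in submerged alluvial soil (water depth 0.1–0.5 cm) in a 25–30 °C greenhouse and grown 14 days. An emulsion of the compound diluted in water to a set herbicide amount was sprayed uniformly on foliage. Effect on each plant scored 3 weeks after application.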

Scirpus juncoides = experiment: Test Example 1: herbicidal activity, application before weed generation in submerged conditions (symbol B); conditions: application herbicide amount 320 g/ha
Outline: (§3)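 Greenhouse growth at 25–30 °C lasted 3 weeks after treatment, when each weed was graded 0–5 by herbicidal ratio. Treatment was a diluted emulsion applied to the water surface of 4 cm-submerged alluvial soil on the sowing day.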

[3] = system: Echinochloa crus-galli var. crus-galli; experiment: Test Example 3: herbicidal effect by foliage application, Wagner pot (symbol H); conditions: application herbicide amount 320 g/ha
Outline: as §2

corn = experiment: Test Example 4: effect on crop by soil treatment (symbol c); conditions: application herbicide amount 320 g/ha
Outline: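 Plants are raised in a greenhouse (25° C. to 30° C.) from spot-sown seed, which sits under about 1.5 cm of sterilized diluvial soil in a box shared with weed species.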

[4] = system: Echinochloa oryzacola Vasing.; experiment: Test Example 1: herbicidal activity, application before weed generation in submerged conditions (symbol A); conditions: application herbicide amount 320 g/ha
Outline: as §3

Abutilon theophrasti = experiment: Test Example 5: herbicidal effect by foliage application, plastic box (symbol M); conditions: 320 g/ha, 3 weeks after application
Outline: as §1

Digitaria ciliaris = experiment: Test Example 4: herbicidal effect by soil treatment (symbol F); conditions: application herbicide amount 320 g/ha
Outline: (§4)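 Seeds were sown in sterilized diluvial soil, covered with about 1.5 cm of soil, and the soil surface was sprayed with a water-diluted emulsion of the compound at a predetermined rate. Plants grew in a greenhouse at 25° C. to 30° C.; effects were scored visually 3 weeks after application.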

wheat = experiment: Test Example 5: effect on crop by foliage application, plastic box (symbol e); conditions: 320 g/ha, 3 weeks after application
Outline: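 Crop and weed seeds sown in spots in sterilized diluvial soil in plastic boxes and covered with about 1.5 cm soil. Plants raised in a greenhouse at 25° C. to 30° C. for foliar application.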

Alopecurus myosuroides [5] = experiment: Test Example 4: herbicidal effect by soil treatment (symbol J); conditions: application herbicide amount 320 g/ha
Outline: as §4

Apera spica-venti = experiment: Test Example 5: herbicidal effect by foliage application, plastic box (symbol L); conditions: 320 g/ha, 3 weeks after application
Outline: as §1

Leptochloa chinensis = experiment: Test Example 3: herbicidal effect by foliage application, Wagner pot (symbol D); conditions: application herbicide amount 320 g/ha
Outline: as §2

Compound	J: Alopecurus myosuroides, herbicidal effect grade (Alopecurus myosuroides [1])	g (rapeseed) effect on crop grade (rapeseed)	P: Stellaria media, herbicidal effect grade (Stellaria media)	effect on crop b (directly sowed rice plant), grade 0-5 [2]	herbicidal effect on E, grade 0-5 (Cyperus difformis)	Herbicidal effect grade, B: Scirpus juncoides (Scirpus juncoides)	herbicidal effect on H (Echinochloa crus-galli var. crus-galli), grade 0-5 [3]	c (corn) effect on crop grade (corn)	Herbicidal effect grade, A: Echinochloa oryzacola Vasing. [4]	M: Abutilon theophrasti, herbicidal effect grade (Abutilon theophrasti)	F (Digitaria ciliaris) herbicidal effect grade (Digitaria ciliaris)	e: wheat, effect on crop grade (wheat)	J (Alopecurus myosuroides) herbicidal effect grade (Alopecurus myosuroides [5])	L: Apera spica-venti, herbicidal effect grade (Apera spica-venti)	herbicidal effect on D (Leptochloa chinensis), grade 0-5 (Leptochloa chinensis)
CON=C(C)CC1CC(OC(=O)C(C)(C)Oc2ccccc2Cl)=C(c2c(C)cc(C)cc2C)C1=O (stereo not drawn) [1-064]	5 (Herbicidal ratio of 90% or more (almost completely withered))	4 (Herbicidal ratio of 70% or higher and lower than 90%)	1 (Herbicidal ratio of 5% or higher and lower than 20%)	5 (Herbicidal ratio of 90% or more (almost completely withered))	5 (Herbicidal ratio of 90% or more (almost completely withered))	5 (Herbicidal ratio of 90% or more (almost completely withered))	5 (Herbicidal ratio of 90% or more (almost completely withered))	5 (Herbicidal ratio of 90% or more (almost completely withered))	5 (Herbicidal ratio of 90% or more (almost completely withered))	4 (Herbicidal ratio of 70% or higher and lower than 90%)	5 (Herbicidal ratio of 90% or more (almost completely withered))	5 (Herbicidal ratio of 90% or more (almost completely withered))	5 (Herbicidal ratio of 90% or more (almost completely withered))	5 (Herbicidal ratio of 90% or more (almost completely withered))	5 (Herbicidal ratio of 90% or more (almost completely withered))
CON=C(C)CC1CC(OC(=O)C(C)(C)Oc2cccc(Cl)c2)=C(c2c(C)cc(C)cc2C)C1=O (stereo not drawn) [1-065]	5 (Herbicidal ratio of 90% or more (almost completely withered))	4 (Herbicidal ratio of 70% or higher and lower than 90%)	0 (Herbicidal ratio of 5% or lower (almost no effect))	5 (Herbicidal ratio of 90% or more (almost completely withered))	5 (Herbicidal ratio of 90% or more (almost completely withered))	5 (Herbicidal ratio of 90% or more (almost completely withered))	5 (Herbicidal ratio of 90% or more (almost completely withered))	5 (Herbicidal ratio of 90% or more (almost completely withered))	5 (Herbicidal ratio of 90% or more (almost completely withered))	4 (Herbicidal ratio of 70% or higher and lower than 90%)	5 (Herbicidal ratio of 90% or more (almost completely withered))	5 (Herbicidal ratio of 90% or more (almost completely withered))	5 (Herbicidal ratio of 90% or more (almost completely withered))	5 (Herbicidal ratio of 90% or more (almost completely withered))	5 (Herbicidal ratio of 90% or more (almost completely withered))

From patent US11000033B2, “Ketone or oxime compound, and herbicide” (NISSAN CHEMICAL CORPORATION, priority 2014, dated 2021)
